Test system: opioid receptors
Test: Affinity for opioid receptors
Type: binding
Conditions: unpublished data

- affinity for opioid receptors: no affinity
Compound: CC(=O)O[C@@H]1C[C@H]2C(C)(C)C(=O)C=C[C@]2(C)[C@H]2CC[C@@]3(C)[C@H](c4ccoc4)OC(=O)[C@H]4O[C@]43[C@@]21C [Gedunin, (1S,3aS,4aR,4bS,5R,6aR,10aR,10bR,12aS)-5-(acetyloxy)-1-(3-furanyl)-1,5,6,6a,7,10a,10b,11,12,12a-decahydro-4b,7,7,10a,12a-pentamethyl-oxireno[c]phenanthro[1,2-d]pyran-3,8(3aH,4bH)-dione]

From article PMC2821452 (Synapse (New York, N.Y.), 2010)
